# Results published in ChEMBL document CHEMBL1143487, “Solid support synthesis of 6-aryl-2-substituted pyrimidin-4-yl phenols as anti-infective agents” (2005).
# Activity calls are given as the source filed them. The calls are words filed in the database; no cut-off is given here.
# Key:
# Plasmodium falciparum = test: Minimum inhibitory concentration against Plasmodium falciparum; type: functional
# [1] = system: Mycobacterium tuberculosis; test: Minimum inhibitory concentration against Mycobacterium tuberculosis; type: functional
# [2] = system: Mycobacterium tuberculosis; test: Minimum inhibitory concentration against Mycobacterium tuberculosis; - = inactive; type: functional, organism-based
Structure (SMILES),MIC (Plasmodium falciparum) [µg/mL],MIC [1] [µg/mL],MIC [2]
CN1CCN(c2nc(-c3ccccc3)cc(-c3ccc(O)cc3)n2)CC1,0.5,25,
Oc1ccc(-c2cc(-c3ccccc3)nc(N3CCCC3)n2)cc1,2,25,
Cc1ccc(-c2cc(-c3ccc(O)cc3)nc(N3CCCC3)n2)cc1,2,,inactive
Cc1ccc(-c2cc(-c3ccc(O)cc3)nc(N3CCN(Cc4ccccc4)CC3)n2)cc1,2,,inactive
COc1ccc(OC)c(-c2cc(-c3ccc(O)cc3)nc(N)n2)c1,10,25,
COc1ccc(-c2cc(-c3ccc(O)cc3)nc(N3CCCCC3)n2)cc1OC,1,25,
Cc1ccc(-c2cc(-c3ccc(O)cc3)nc(N3CCN(C)CC3)n2)cc1,1,25,
Oc1ccc(-c2cc(-c3ccccc3)nc(N3CCN(Cc4ccccc4)CC3)n2)cc1,1,25,
COc1ccc(-c2cc(-c3ccc(O)cc3)nc(N3CCCC3)n2)cc1OC,1,25,
COc1ccc(OC)c(-c2cc(-c3ccc(O)cc3)nc(N3CCCC3)n2)c1,1,25,
Nc1nc(-c2ccccc2)cc(-c2ccc(O)cc2)n1,10,,inactive
COc1ccc(-c2cc(-c3ccc(O)cc3)nc(N3CCN(C)CC3)n2)cc1,0.5,25,
Oc1ccc(-c2cc(-c3ccccc3)nc(N3CCCCC3)n2)cc1,2,25,
COc1ccc(-c2cc(-c3ccc(O)cc3)nc(N)n2)cc1,50,,inactive
Oc1ccc(-c2cc(-c3ccccc3)nc(N3CCN(c4ccccc4)CC3)n2)cc1,10,25,
Cc1ccc(-c2cc(-c3ccc(O)cc3)nc(N)n2)cc1,50,,inactive
COc1ccc(-c2cc(-c3ccc(O)cc3)nc(N3CCN(C)CC3)n2)cc1OC,0.25,12.5,
COc1ccc(OC)c(-c2cc(-c3ccc(O)cc3)nc(N3CCCCC3)n2)c1,1,25,
COc1ccc(-c2cc(-c3ccc(O)cc3)nc(N)n2)cc1OC,10,12.5,
Cc1ccc(-c2cc(-c3ccc(O)cc3)nc(N3CCN(c4ccccc4)CC3)n2)cc1,10,,inactive
COc1ccc(-c2cc(-c3ccc(O)cc3)nc(N3CCN(c4ccccc4)CC3)n2)cc1OC,1,,inactive
COc1ccc(-c2cc(-c3ccc(O)cc3)nc(N3CCCCC3)n2)cc1,0.5,,inactive
COc1ccc(-c2cc(-c3ccc(O)cc3)nc(N3CCN(Cc4ccccc4)CC3)n2)cc1,1,,inactive
COc1ccc(OC)c(-c2cc(-c3ccc(O)cc3)nc(N3CCN(Cc4ccccc4)CC3)n2)c1,0.25,25,
Cc1ccc(-c2cc(-c3ccc(O)cc3)nc(N3CCCCC3)n2)cc1,2,,inactive
COc1ccc(OC)c(-c2cc(-c3ccc(O)cc3)nc(N3CCN(c4ccccc4)CC3)n2)c1,2,,inactive
COc1ccc(-c2cc(-c3ccc(O)cc3)nc(N3CCN(c4ccccc4)CC3)n2)cc1,2,,inactive
COc1ccc(-c2cc(-c3ccc(O)cc3)nc(N3CCCC3)n2)cc1,1,,inactive
COc1ccc(-c2cc(-c3ccc(O)cc3)nc(N3CCN(Cc4ccccc4)CC3)n2)cc1OC,0.5,,inactive
COc1ccc(OC)c(-c2cc(-c3ccc(O)cc3)nc(N3CCN(C)CC3)n2)c1,0.25,12.5,
